Assay results published in patent US20130096067A1, “DROSOPHILA TUMOR STEM CELL MODEL AND USES THEREOF” (priority 2011, published 2013).
Read-outs that look alike come from different tables or passages of the source. Peptide text beside a SMILES is read from it. * marks the point of attachment. Cbz = O=C(OCc1ccccc1)*; CH2F = FC*

What was measured:
[1] = test system: Raf-1^gof intestinal tumors; experiment: Luciferase screen of FDA-approved (NCI) drugs in 96-well plates, flies with Raf-1^gof intestinal tumors; type: in vivo, Drosophila; details: for Avg (3 + 6): average of Day 3 and Day 6 fold; for Day 6 Fold: six-day protocol: single dose for three days, then another dose for three more days; for Avg (3 + 6): test concentration or dose not given here; for Log2 (fold): test concentration or dose not given here
[2] = test system: Raf-1^gof intestinal tumors; details: for Log2 (fold) of luciferase activity relative to DMSO controls / Fold (luciferase activity relative to DMSO controls): ICCB compounds fed in vials to flies with one-day old Raf-1^gof tumors; for Fold: luciferase relative to DMSO, fed three consecutive days in vials; for Fold (luciferase activity relative to DMSO controls): test concentration or dose not given here; for Fold (luciferase activity, fold difference relative to DMSO controls): test concentration or dose not given here; for Log2 (fold) (luciferase activity, log2 of the fold difference relative to DMSO controls): test concentration or dose not given here; for Log2 (fold) of luciferase activity relative to DMSO controls: test concentration or dose not given here
[3] = log2 of the Day 3 fold difference in luciferase relative to DMSO controls
[4] = luciferase activity relative to DMSO controls, single dose of drug for three days, 96-well plates
[5] = screen of 480 ICCB compounds in vials, compounds fed to flies with one-day old Raf-1^gof tumors, assessed three days later, esg-Gal4 luciferase
[6] = screen of 480 ICCB compounds in vials, compounds fed to flies with one-day old Raf-1^gof tumors, assessed three days later, esg-Gal4 luciferase, averaged from multiple wells
[7] = assessed three days later, averaged from multiple wells
[8] = Table 3 summary of hits, Screen ICCB

| Compound | Log2 (fold) (luciferase activity, log2 of the fold difference relative to DMSO controls) [2, 5] | Fold (luciferase activity, fold difference relative to DMSO controls) [2, 6] | Log2 (fold) of luciferase activity relative to DMSO controls ([2]; assessed three days later) | Fold (luciferase activity relative to DMSO controls) [2, 7] | other results |
| --- | --- | --- | --- | --- | --- |
| CCN(CC)CCCC(C)Nc1c2ccc(Cl)cc2nc2ccc(OC)cc12 (centres unmarked) [Acrichine] |  |  |  |  | Avg (3 + 6) [1]: 1.046 fold; Log2 (fold) [1, 3]: −0.212; Day 3 Fold [1, 4]: 0.863 fold; Day 6 Fold [1]: 1.229 fold |
| Oc1ncnc2[nH]ncc12 [Allopurinol] |  |  |  |  | Avg (3 + 6) [1]: 1.997 fold; Log2 (fold) [1, 3]: 1.281; Day 3 Fold [1, 4]: 2.430 fold; Day 6 Fold [1]: 1.565 fold |
| CN(C)c1nc(N(C)C)nc(N(C)C)n1 [Altretamine] |  |  |  |  | Avg (3 + 6) [1]: 0.611 fold; Log2 (fold) [1, 3]: −0.625; Day 3 Fold [1, 4]: 0.649 fold; Day 6 Fold [1]: 0.574 fold |
| NCCCNCCSP(=O)(O)O [Amifostine] |  |  |  |  | Avg (3 + 6) [1]: 1.239 fold; Log2 (fold) [1, 3]: 0.248; Day 3 Fold [1, 4]: 1.187 fold; Day 6 Fold [1]: 1.291 fold |
| NCC(=O)CCC(=O)O [Aminolevulinic acid] |  |  |  |  | Avg (3 + 6) [1]: 0.897 fold; Log2 (fold) [1, 3]: −0.016; Day 3 Fold [1, 4]: 0.989 fold; Day 6 Fold [1]: 0.805 fold |
| CC(C)(C#N)c1cc(Cn2cncn2)cc(C(C)(C)C#N)c1 [Anastrozole] |  |  |  |  | Avg (3 + 6) [1]: 1.000 fold; Log2 (fold) [1, 3]: −0.053; Day 3 Fold [1, 4]: 0.964 fold; Day 6 Fold [1]: 1.036 fold |
| Nc1ncn([C@@H]2O[C@H](CO)[C@@H](O)[C@H]2O)c(=O)n1 [Azacitidine] |  |  |  |  | Avg (3 + 6) [1]: 1.045 fold; Log2 (fold) [1, 3]: 0.157; Day 3 Fold [1, 4]: 1.115 fold; Day 6 Fold [1]: 0.976 fold |
| CS(=O)(=O)OCCCCOS(C)(=O)=O [Busulfan] |  |  |  |  | Avg (3 + 6) [1]: 0.936 fold; Log2 (fold) [1, 3]: 0.166; Day 3 Fold [1, 4]: 1.122 fold; Day 6 Fold [1]: 0.750 fold |
| CCCCCOC(=O)Nc1nc(=O)n([C@@H]2O[C@H](C)[C@@H](O)[C@H]2O)cc1F [Capecitabine] |  |  |  |  | Avg (3 + 6) [1]: 1.017 fold; Log2 (fold) [1, 3]: −0.078; Day 3 Fold [1, 4]: 0.947 fold; Day 6 Fold [1]: 1.087 fold |
| N.N.O=C([O-])C1(C(=O)[O-])CCC1.[Pt+2] [Carboplatin] |  |  |  |  | Avg (3 + 6) [1]: 1.159 fold; Log2 (fold) [1, 3]: 0.059; Day 3 Fold [1, 4]: 1.042 fold; Day 6 Fold [1]: 1.276 fold |
| O=NN(CCCl)C(=O)NCCCl [Carmustine] |  |  |  |  | Avg (3 + 6) [1]: 0.496 fold; Day 3 Fold ([1]; po, 72 h): 0.565 fold; Log2 (fold) ([1]; po, 72 h): −0.823 |
| Cc1ccc(-c2cc(C(F)(F)F)nn2-c2ccc(S(N)(=O)=O)cc2)cc1 [Celecoxib] |  |  |  |  | Avg (3 + 6) [1]: 0.755 fold; Log2 (fold) [1, 3]: −0.565; Day 3 Fold [1, 4]: 0.676 fold; Day 6 Fold [1]: 0.834 fold |
| O=C(O)CCCc1ccc(N(CCCl)CCCl)cc1 [Chlorambucil] |  |  |  |  | Avg (3 + 6) [1]: 1.022 fold; Log2 (fold) [1, 3]: 0.175; Day 3 Fold [1, 4]: 1.129 fold; Day 6 Fold [1]: 0.915 fold |
| N.N.[Cl][Pt][Cl] [Cisplatin] |  |  |  |  | Avg (3 + 6) [1]: 1.113 fold; Log2 (fold) [1, 3]: 0.145; Day 3 Fold [1, 4]: 1.106 fold; Day 6 Fold [1]: 1.120 fold |
| Oc1ccc(C=Cc2cc(O)cc(O)c2)cc1 [resveratrol] | −0.551 | 0.682 |  |  |  |
| CC[C@H](CO)Nc1nc(NCc2ccccc2)c2ncn(C(C)C)c2n1 [roscovitine] |  |  |  |  | Fold (luciferase activity, fold difference relative to DMSO controls) ([2]; in vivo): 0.659; Log2 (fold) (luciferase activity, log2 of the fold difference relative to DMSO controls) ([2]; in vivo): −0.602 |
| NCCc1c[nH]c2ccc(O)cc12 [serotonin] |  |  | 0.266 | 1.203 fold |  |
| CN/C(=N\c1ccc(C2=NNC(=O)CC2C)cc1)NC#N (centres unmarked) [siguazodan] | −0.376 | 0.771 |  |  |  |
| O[C@H]1[C@H]2[C@H](O)CCCN2C[C@H]1O [swainsonine] | −0.233 | 0.851 |  |  |  |
| CC/C(=C(\c1ccccc1)c1ccc(OCCN(C)C)cc1)c1ccccc1 [tamoxifen, reference compound] | −1.562 | 0.339 |  |  | Fold [2, 8]: 0.339 fold |
| CC(/C=C/C(=O)NO)=C\[C@@H](C)C(=O)c1ccc(N(C)C)cc1 [trichostatin-A] |  |  | −0.109 | 0.927 fold |  |
| CN1CCN(CCCN2c3ccccc3Sc3ccc(C(F)(F)F)cc32)CC1 [trifluoperazine] |  |  | −0.206 | 0.867 fold |  |
| CC(C)[C@]12O[C@H]1[C@@H]1O[C@]13[C@]1(O[C@H]1C[C@H]1C4=C(CC[C@@]13C)C(=O)OC4)[C@@H]2O [triptolide, reference compound] |  |  |  |  | Log2 (fold) [2, 8]: −2.553 |
| CC(C)(C)c1cc(C=C(C#N)C#N)cc(C(C)(C)C)c1O [tyrphostin 9] |  |  | 0.671 | 1.592 fold |  |
| N#CC(C#N)=Cc1ccc([N+](=O)[O-])c(O)c1 [tyrphostin AG-126] |  |  | −0.085 | 0.943 fold |  |
| N#CC(=Cc1ccc2[nH]ccc2c1)C(N)=C(C#N)C#N [tyrphostin AG-370] |  |  | 0.314 | 1.243 fold |  |

| Compound | Log2 (fold) (luciferase activity, log2 of the fold difference relative to DMSO controls) [2, 5] | Fold (luciferase activity, fold difference relative to DMSO controls) [2, 6] | Log2 (fold) of luciferase activity relative to DMSO controls ([2]; assessed three days later) | Fold (luciferase activity relative to DMSO controls) [2, 7] | other results |
| --- | --- | --- | --- | --- | --- |
| COc1cc(/C=C(\C#N)C(N)=O)cc(CSc2nc3ccccc3s2)c1O [tyrphostin AG-825] |  |  | −0.042 | 0.972 fold |  |
| CC(C)[C@@H]1NC(=O)[C@H](C)OC(=O)[C@@H](C(C)C)NC(=O)[C@@H](C(C)C)OC(=O)[C@H](C(C)C)NC(=O)[C@H](C)OC(=O)[C@@H](C(C)C)NC(=O)[C@@H](C(C)C)OC(=O)[C@H](C(C)C)NC(=O)[C@H](C)OC(=O)[C@@H](C(C)C)NC(=O)[C@@H](C(C)C)OC1=O [valinomycin] | −0.408 | 0.754 |  |  |  |
| CCOC(=O)C1=C[C@]2(CC)CCCN3CCc4c(n1c1ccccc41)[C@@H]32 [vinpocetine] |  |  | 0.280 | 1.214 fold |  |
| COC(=O)[C@@H]1[C@H]2C[C@H]3c4[nH]c5ccccc5c4CCN3C[C@@H]2CC[C@@H]1O [yohimbine] |  |  | 0.061 | 1.043 fold |  |
| COC(=O)C[C@H](NC(=O)[C@H](C)NC(=O)[C@@H](NC(=O)OCc1ccccc1)C(C)C)C(=O)CF [zVAD-FMK] (Cbz-Val-Ala-Asp(OMe)-CH2F) | −0.597 | 0.661 |  |  |  |
| CCCOc1ccccc1-c1nc2nn[nH]c2c(=O)[nH]1 [zaprinast] |  |  | −0.055 | 0.962 fold |  |
| COc1cc(-c2ccc(=O)[nH]n2)ccc1OC(F)F [zardaverine] |  |  | 0.145 | 1.106 fold |  |
| BW-B 70C |  |  | 0.116 | 1.084 fold |  |
| Cyclo [Cyclo [Arg-Gly-Asp-D-Phe-Val]] | −0.221 | 0.858 |  |  |  |
| HA14-1 | −0.590 | 0.664 |  |  |  |
| ICRF-193 [reference compound] | −1.459 | 0.364 |  |  | Fold [2, 8]: 0.364 fold |
| KN-62 | −0.513 | 0.701 |  |  |  |
| LY-83583 | −0.465 | 0.725 |  |  |  |
| LY-171883 |  |  | 0.168 | 1.124 fold |  |
| LY-294002 |  |  | −0.204 | 0.868 fold |  |
| LYSOPHOSPHATIDIC ACID | −0.509 | 0.703 |  |  |  |
| MDL-28170 | −0.617 | 0.652 |  |  |  |
| METHOXY VERAPAMIL |  |  | −0.069 | 0.954 fold |  |
| PROSTAGLANDIN J2 | −0.525 | 0.695 |  |  |  |
| Ro 20-1724 | −0.242 | 0.846 |  |  |  |
| Ro 31-8220 |  |  | 0.158 | 1.116 fold |  |
| calphostin C | −0.707 | 0.613 |  |  |  |
| mastoparan | −0.301 | 0.812 |  |  |  |
| pifithrin |  |  | 0.022 | 1.015 fold |  |
| tunicamycin [reference compound] | −1.925 | 0.263 |  |  | Fold [2, 8]: 0.263 fold |
